Results published in patent US8476198B2, “Fungicidal composition” (Valent BioSciences Corporation, priority 2009, dated 2013).
Structures can show the parent of a compound that is named as a salt.

Legend:
[1] = system: Fusarium solani f. sp. pisi; assay: Seed treatment effect against Fusarium solani f. sp. pisi (Fusarium root rot of pea); type: in vivo, Fusarium solani f. sp. pisi on pea; details: 16 days
Procedure: Seed treatment effect against Fusarium solani f. sp. pisi (Fusarium root rot of pea)
PESA and metconazole were diluted with DMSO respectively and mixed with each other to obtain the desired material mixture. Then, this suspension was applied to pea seeds. The PESA solution and the metconazole solution were applied to seeds respectively for control, and DMSO for untreated control. The seeds were dried and planted in soil that was inoculated with Fusarium solani f. sp. pisi. After growing at 20-24° C. in a greenhouse, for 16 days, symptoms were investigated and the frequency of disease and % control were calculated. The fungicide interactions in the combinations are calculated according to […] formula: E=X+Y−(X*Y)/100 • X=% action by active ingredient A using P ppm of active ingredient • Y=% action by active ingredient B using Q ppm of active ingredient • E=expected % action by active ingredients A and B using P and Q ppm of active ingredients If the action actually observed (O) is greater than the expected action (E), than the action of the combination is super-additive, i.e. there is a synergistic effect. In mathematical terms, synergism corresponds to a value of more than 100 for the ratio of O/E, said ratio O/E of less than 100 signals a loss of activity compared to the expected activity. Synergy Effect=(Observed/Expected)*100

cotton seedlings = assay: Pouch assay: main root length of cotton seedlings from treated seeds; type: in vivo; details: for Root Length (cm): 6 day-old cotton seedlings
Procedure: Seeds of cotton were treated with PESA salt and/or triadimenol (BAYTAN® 30 Flowable Fungicide, Bayer Crop Science, RTP, NC USA). These were assayed in the pouch assay as described above.

## O=C(O)CCC(=O)NCCc1ccccc1 [PESA, N-(2-phenylethyl)succinamic acid]
[1]; PESA 2 gai/100 kg seed, inoculated soil
  Observed action (% control): 0 % control
[1]; PESA 10 gai/100 kg seed, inoculated soil
  Observed action (% control): 9 % control

## CC1(C)CCC(Cc2ccc(Cl)cc2)C1(O)Cn1cncn1 (stereo not drawn) [Metconazole, metconazole, reference compound]
[1]; metconazole 0.2 gai/100 kg seed
  Observed action (% control): 55 % control
[1]; metconazole 1 gai/100 kg seed
  Observed action (% control): 73 % control

## CC(C)(C)C(O)C(Oc1ccc(Cl)cc1)n1cncn1 (stereo not drawn) [Triadimenol, triadimenol, reference compound]
Cotton seedlings; triadimenol 28.2 g ai/100 lbs. of seed, 0 g ai PESA salt
  Root Length (cm): 12.8 cm
Cotton seedlings; triadimenol 56.4 g ai/100 lbs. of seed, 0 g ai PESA salt
  Root Length (cm): 12.3 cm

## O=C(O)CCC(=O)NCCc1ccccc1 [PESA salt]
Cotton seedlings; 25 g ai PESA salt/100 lbs. of seed, triadimenol 0
  Root Length (cm): 14.8 cm
Cotton seedlings; 50 g ai PESA salt/100 lbs. of seed, triadimenol 0
  Root Length (cm): 14.3 cm
Cotton seedlings; cotton seed treatment, conclusion in words from Table 2
  Effect of adding PESA salt on the fungicide's negative effect on cotton root growth: protects or safens cotton from the negative effects of the fungicide on root growth
